Data on 22 molecules can be found in US10160755B2 (Plexxikon Inc., priority 2015, dated 2018).

Molecules are shown by their SMILES.

The IC50 is the midpoint of a concentration-inhibition curve. A high value points to lower potency.

One assay addresses T1, FLT3-ITD (Homo sapiens, UniProt P36888).
T1 construct: FLT3-ITD; Invitrogen #PV6190
T1 sequence (P36888 1-993): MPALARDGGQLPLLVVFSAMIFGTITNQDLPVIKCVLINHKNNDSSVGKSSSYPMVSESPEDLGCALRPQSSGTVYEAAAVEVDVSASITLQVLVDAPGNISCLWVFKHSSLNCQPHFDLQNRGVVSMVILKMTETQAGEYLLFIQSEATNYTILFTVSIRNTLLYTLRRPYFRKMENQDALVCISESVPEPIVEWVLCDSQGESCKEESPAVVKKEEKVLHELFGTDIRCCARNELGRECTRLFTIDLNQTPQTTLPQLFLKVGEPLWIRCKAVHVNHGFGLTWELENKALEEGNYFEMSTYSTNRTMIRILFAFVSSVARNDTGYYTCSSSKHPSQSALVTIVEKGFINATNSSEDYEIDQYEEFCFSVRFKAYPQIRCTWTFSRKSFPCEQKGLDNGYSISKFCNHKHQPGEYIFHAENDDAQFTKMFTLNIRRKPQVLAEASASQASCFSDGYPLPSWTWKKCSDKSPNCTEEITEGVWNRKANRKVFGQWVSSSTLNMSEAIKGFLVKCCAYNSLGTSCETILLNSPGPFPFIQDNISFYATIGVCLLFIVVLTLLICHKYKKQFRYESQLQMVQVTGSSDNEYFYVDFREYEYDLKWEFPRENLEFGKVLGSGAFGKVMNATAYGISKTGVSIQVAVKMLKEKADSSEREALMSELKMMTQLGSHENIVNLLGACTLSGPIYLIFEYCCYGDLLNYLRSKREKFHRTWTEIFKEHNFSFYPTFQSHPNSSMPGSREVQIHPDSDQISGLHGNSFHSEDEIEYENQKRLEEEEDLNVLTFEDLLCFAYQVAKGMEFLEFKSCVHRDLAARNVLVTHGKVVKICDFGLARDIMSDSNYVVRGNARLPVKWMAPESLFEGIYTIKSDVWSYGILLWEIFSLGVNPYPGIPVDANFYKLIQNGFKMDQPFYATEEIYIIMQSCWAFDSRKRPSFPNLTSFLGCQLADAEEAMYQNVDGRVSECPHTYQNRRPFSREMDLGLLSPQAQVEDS
The assay is described as follows: FLT3-ITD biochemical kinase assay (AlphaScreen). Put shortly:
(§1)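 AlphaScreen read-out of tyrosine phosphorylation of a 30 nM biotinylated poly(Glu4-Tyr) substrate, captured on streptavidin donor and PY20 acceptor beads at room temperature. ATP for IC50 work was 100 μM with FLT3-ITD and 10 μM with FLT3-D835Y; reduced 580 nm proximity signal reflects kinase inhibition.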

The target in another assay is T2, FLT3-D835Y (Homo sapiens, UniProt P36888, D835Y).
T2 construct: purchased Invitrogen PV3967
T2 sequence (P36888 27-993 D835Y): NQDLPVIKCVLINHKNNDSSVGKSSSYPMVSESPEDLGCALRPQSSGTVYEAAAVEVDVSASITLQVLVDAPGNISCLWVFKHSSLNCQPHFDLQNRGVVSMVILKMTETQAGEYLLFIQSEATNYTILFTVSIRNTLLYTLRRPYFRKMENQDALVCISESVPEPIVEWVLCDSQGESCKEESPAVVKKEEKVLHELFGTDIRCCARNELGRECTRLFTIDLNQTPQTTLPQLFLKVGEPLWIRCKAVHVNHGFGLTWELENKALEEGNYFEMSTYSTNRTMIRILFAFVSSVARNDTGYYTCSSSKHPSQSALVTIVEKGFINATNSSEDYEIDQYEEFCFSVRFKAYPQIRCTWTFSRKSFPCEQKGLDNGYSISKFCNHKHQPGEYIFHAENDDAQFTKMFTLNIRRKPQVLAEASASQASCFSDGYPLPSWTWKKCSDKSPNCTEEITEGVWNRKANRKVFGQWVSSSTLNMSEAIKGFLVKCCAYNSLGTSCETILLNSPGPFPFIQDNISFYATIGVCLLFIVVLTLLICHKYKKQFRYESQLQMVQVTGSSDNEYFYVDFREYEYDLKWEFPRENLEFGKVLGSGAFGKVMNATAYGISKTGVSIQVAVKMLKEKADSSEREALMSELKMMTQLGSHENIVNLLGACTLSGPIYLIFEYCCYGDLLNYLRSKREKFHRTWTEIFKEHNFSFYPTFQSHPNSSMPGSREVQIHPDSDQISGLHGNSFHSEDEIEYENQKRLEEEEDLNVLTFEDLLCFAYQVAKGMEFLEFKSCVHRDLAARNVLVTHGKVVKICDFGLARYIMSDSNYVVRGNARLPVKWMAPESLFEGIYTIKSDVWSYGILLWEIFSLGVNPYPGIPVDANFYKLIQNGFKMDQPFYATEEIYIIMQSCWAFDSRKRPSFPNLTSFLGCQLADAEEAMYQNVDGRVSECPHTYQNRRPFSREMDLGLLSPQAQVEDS
The assay is described as follows: FLT3-D835Y biochemical kinase assay (AlphaScreen). Put shortly:
as §1
(Alpha assays give light when donor and acceptor beads are brought close together.)

Take `COc1cc(-c2cnc3[nH]cc(-c4ccc5ncsc5c4)c3n2)ccc1Cl` [P-161, 6-[2-(4-chloro-3-methoxy-phenyl)-5H-pyrrolo[2,3-b]pyrazin-7-yl]-1,3-benzothiazole]: the values for the IC50 at FLT3-ITD and against FLT3-D835Y were 1 to 10 µM and 0.0001 to 1 µM, respectively.

As for `CC(C)S(=O)(=O)Nc1cccc(-c2cnc3[nH]cc(-c4ccc5ncn(C(C)(C)C)c5c4)c3c2)c1` [P-214, N-[3-[3-(3-tert-butylbenzimidazol-5-yl)-1H-pyrrolo[2,3-b]pyridin-5-yl]phenyl]propane-2-sulfonamide], the IC50 on FLT3-ITD and at FLT3-D835Y was 0.0001 to 1 µM each time.

As to `O=C(NC1CC1)c1cccc(-c2cnc3[nH]cc(-c4ccc5ncsc5c4)c3n2)c1` [P-162, 3-[7-(1,3-benzothiazol-6-yl)-5H-pyrrolo[2,3-b]pyrazin-2-yl]-N-cyclopropyl-benzamide], the concentration for half-maximal inhibition (IC50) at FLT3-ITD and at FLT3-D835Y was 0.0001 to 1 µM each time.

Take `COC(=O)c1cc(-c2cnc3[nH]cc(-c4ccc5ncsc5c4)c3n2)ccc1C` [P-165, methyl 5-[7-(1,3-benzothiazol-6-yl)-5H-pyrrolo[2,3-b]pyrazin-2-yl]-2-methyl-benzoate]: the IC50 against FLT3-ITD and at FLT3-D835Y was 0.0001 to 1 µM in each case.

Consider `COc1cnc2[nH]cc(-c3ccc4c(c3)ncn4C)c2c1` [P-102, 5-methoxy-3-(1-methylbenzimidazol-5-yl)-1H-pyrrolo[2,3-b]pyridine], for which the results for the 50% inhibitory concentration (IC50) against FLT3-ITD and on FLT3-D835Y were 10 to 200 µM and 1 to 10 µM, respectively.

As to `Cn1cnc2ccc(-c3c[nH]c4ncc(-c5ccc(F)c(C#N)c5)cc34)cc21` [P-141, 2-fluoro-5-[3-(3-methylbenzimidazol-5-yl)-1H-pyrrolo[2,3-b]pyridin-5-yl]benzonitrile], the IC50 against FLT3-ITD and against FLT3-D835Y was 0.0001 to 1 µM throughout.

Consider `CN(c1cccc(-c2cnc3[nH]cc(-c4ccc5ncsc5c4)c3n2)c1)S(C)(=O)=O` [P-167, N-[3-[7-(1,3-benzothiazol-6-yl)-5H-pyrrolo[2,3-b]pyrazin-2-yl]phenyl]-N-methyl-methanesulfonamide], for which the 50% inhibitory concentration (IC50) at FLT3-ITD and at FLT3-D835Y was 0.0001 to 1 µM each time.

Consider `CC(C)(C)n1cnc2ccc(-c3c[nH]c4ncc(-c5cnc(C(F)(F)F)nc5)nc34)cc21` [P-343, 7-(3-tert-butylbenzimidazol-5-yl)-2-[2-(trifluoromethyl)pyrimidin-5-yl]-5H-pyrrolo[2,3-b]pyrazine], for which the IC50 on FLT3-ITD and against FLT3-D835Y was 0.0001 to 1 µM throughout.

As to `CC(C)(C)n1cnc2ccc(-c3c[nH]c4ncc(-c5ccc(F)c(C#N)c5)cc34)cc21` [P-207, 5-[3-(3-tert-butylbenzimidazol-5-yl)-1H-pyrrolo[2,3-b]pyridin-5-yl]-2-fluoro-benzonitrile], the IC50 against FLT3-ITD and against FLT3-D835Y was 0.0001 to 1 µM each time.

With `N#Cc1cccc(-c2cnc3[nH]cc(-c4ccc5ncn(-c6ccc(F)cc6)c5c4)c3c2)c1` [P-201, 3-[3-[3-(4-fluorophenyl)benzimidazol-5-yl]-1H-pyrrolo[2,3-b]pyridin-5-yl]benzonitrile], the IC50 against FLT3-ITD and against FLT3-D835Y was 0.0001 to 1 µM in each case.

For `Fc1ccc(-n2cnc3ccc(-c4c[nH]c5ncc(-c6cccc(OC(F)(F)F)c6)nc45)cc32)cc1` [P-192, 7-[3-(4-fluorophenyl)benzimidazol-5-yl]-2-[3-(trifluoromethoxy)phenyl]-5H-pyrrolo[2,3-b]pyrazine], the concentration for half-maximal inhibition (IC50) on FLT3-ITD and at FLT3-D835Y was 0.0001 to 1 µM in each case.

In the case of `CC(C)(C)n1cnc2ccc(-c3c[nH]c4ncc(-c5cnn(C6CC6)c5)nc34)cc21` [P-350, 7-(3-tert-butylbenzimidazol-5-yl)-2-(1-cyclopropylpyrazol-4-yl)-5H-pyrrolo[2,3-b]pyrazine], the half-maximal inhibitory concentration (IC50) against FLT3-ITD and against FLT3-D835Y was 0.0001 to 1 µM throughout.

For the molecule `Cn1cnc2ccc(-c3c[nH]c4ncc(-c5cccc(CC(=O)O)c5)cc34)cc21` [P-185, 2-[3-[3-(3-methylbenzimidazol-5-yl)-1H-pyrrolo[2,3-b]pyridin-5-yl]phenyl]acetic acid], the half-maximal inhibitory concentration (IC50) against FLT3-ITD and on FLT3-D835Y was 0.0001 to 1 µM throughout.

For the molecule `Cn1cnc2ccc(-c3c[nH]c4ncc(-c5cnn(CC(F)(F)F)c5)nc34)cc21` [P-176, 7-(3-methylbenzimidazol-5-yl)-2-[1-(2,2,2-trifluoroethyl)pyrazol-4-yl]-5H-pyrrolo[2,3-b]pyrazine], the half-maximal inhibitory concentration (IC50) at FLT3-ITD and against FLT3-D835Y was 0.0001 to 1 µM in each case.

In the case of `FC(F)(F)Cn1cc(-c2cnc3[nH]cc(-c4ccc5ncsc5c4)c3n2)cn1` [P-166, 6-[2-[1-(2,2,2-trifluoroethyl)pyrazol-4-yl]-5H-pyrrolo[2,3-b]pyrazin-7-yl]-1,3-benzothiazole], the IC50 against FLT3-ITD and on FLT3-D835Y was 0.0001 to 1 µM throughout.

In the case of `CC(C)(C)n1cnc2ccc(-c3c[nH]c4ncc(-c5ccc(C#N)c(N6CCCC6)c5)nc34)cc21` [P-335, 4-[7-(3-tert-butylbenzimidazol-5-yl)-5H-pyrrolo[2,3-b]pyrazin-2-yl]-2-pyrrolidin-1-yl-benzonitrile], the IC50 on FLT3-ITD and against FLT3-D835Y was 0.0001 to 1 µM throughout.

Take `CC(C)S(=O)(=O)Nc1cccc(-c2cnc3[nH]cc(-c4ccc5ncn(C)c5c4)c3n2)c1` [P-152, N-[3-[7-(3-methylbenzimidazol-5-yl)-5H-pyrrolo[2,3-b]pyrazin-2-yl]phenyl]propane-2-sulfonamide]: the IC50 at FLT3-ITD and on FLT3-D835Y was 0.0001 to 1 µM in each case.

Regarding `COc1cc(-c2cnc3[nH]cc(-c4ccc5ncn(C(C)(C)C)c5c4)c3n2)ccc1C#N` [P-354, 4-[7-(3-tert-butylbenzimidazol-5-yl)-5H-pyrrolo[2,3-b]pyrazin-2-yl]-2-methoxy-benzonitrile], the IC50 against FLT3-ITD and against FLT3-D835Y was 0.0001 to 1 µM each time.

With `FC(F)(F)Oc1cccc(-c2cnc3[nH]cc(-c4ccc5ncn(C6CCCNC6)c5c4)c3c2)c1` (centres unmarked) [P-203, 1-(3-piperidyl)-6-[5-[3-(trifluoromethoxy)phenyl]-1H-pyrrolo[2,3-b]pyridin-3-yl]benzimidazole], the half-maximal inhibitory concentration (IC50) at FLT3-ITD and against FLT3-D835Y was 0.0001 to 1 µM in each case.

Regarding `CC(C)n1cnc2ccc(-c3c[nH]c4ncc(-c5cccc(NS(C)(=O)=O)c5)nc34)cc21` [P-080, N-[3-[7-(3-isopropylbenzimidazol-5-yl)-5H-pyrrolo[2,3-b]pyrazin-2-yl]phenyl]methanesulfonamide], the IC50 on FLT3-ITD and against FLT3-D835Y was 0.0001 to 1 µM in each case.

As for `CC(=O)Nc1cccc(-c2cnc3[nH]cc(-c4ccc5ncsc5c4)c3n2)c1` [P-159, N-[3-[7-(1,3-benzothiazol-6-yl)-5H-pyrrolo[2,3-b]pyrazin-2-yl]phenyl]acetamide], the half-inhibitory concentration (IC50) against FLT3-ITD and on FLT3-D835Y was 0.0001 to 1 µM each time.

In the case of `Cn1cnc2ccc(-c3c[nH]c4ncc(-c5ccc(C#N)s5)cc34)cc21` [P-179, 5-[3-(3-methylbenzimidazol-5-yl)-1H-pyrrolo[2,3-b]pyridin-5-yl]thiophene-2-carbonitrile], the half-inhibitory concentration (IC50) on FLT3-ITD and against FLT3-D835Y was 0.0001 to 1 µM each time.
